Measured values: PubChem BioAssay AID1259407 (Chemical Carcinogenesis Research Information System (CCRIS), 2018)
Active and inactive are the calls of the source. How the calls were made is not given here.

System: CCRIS mutagenicity, Ames/micronucleus/aberration tests
Assay: CCRIS mutagenicity studies
[1] = Test System: AMES SALMONELLA TYPHIMURIUM, Strain/Indicator: TA98, Metabolic Activation: HAMSTER, LIVER, S-9, AROCLOR 1254 (10%), Method: PREINCUBATION
[2] = Test System: AMES SALMONELLA TYPHIMURIUM, Strain/Indicator: TA98, Metabolic Activation: NONE, Method: PREINCUBATION
[3] = Test System: AMES SALMONELLA TYPHIMURIUM, Strain/Indicator: TA98, Metabolic Activation: RAT, LIVER, S-9, AROCLOR 1254 (10%), Method: PREINCUBATION
[4] = Test System: AMES SALMONELLA TYPHIMURIUM, Strain/Indicator: TA100, Metabolic Activation: HAMSTER, LIVER, S-9, AROCLOR 1254 (10%), Method: PREINCUBATION
[5] = Test System: AMES SALMONELLA TYPHIMURIUM, Strain/Indicator: TA100, Metabolic Activation: NONE, Method: PREINCUBATION
[6] = Test System: AMES SALMONELLA TYPHIMURIUM, Strain/Indicator: TA100, Metabolic Activation: RAT, LIVER, S-9, AROCLOR 1254 (10%), Method: PREINCUBATION
[7] = Test System: AMES SALMONELLA TYPHIMURIUM, Strain/Indicator: TA1535, Metabolic Activation: HAMSTER, LIVER, S-9, AROCLOR 1254 (10%), Method: PREINCUBATION
[8] = Test System: AMES SALMONELLA TYPHIMURIUM, Strain/Indicator: TA1535, Metabolic Activation: NONE, Method: PREINCUBATION
[9] = Test System: AMES SALMONELLA TYPHIMURIUM, Strain/Indicator: TA1535, Metabolic Activation: RAT, LIVER, S-9, AROCLOR 1254 (10%), Method: PREINCUBATION
[10] = Test System: AMES SALMONELLA TYPHIMURIUM, Strain/Indicator: TA1537, Metabolic Activation: HAMSTER, LIVER, S-9, AROCLOR 1254 (10%), Method: PREINCUBATION
[11] = Test System: AMES SALMONELLA TYPHIMURIUM, Strain/Indicator: TA1537, Metabolic Activation: NONE, Method: PREINCUBATION
[12] = Test System: AMES SALMONELLA TYPHIMURIUM, Strain/Indicator: TA1537, Metabolic Activation: RAT, LIVER, S-9, AROCLOR 1254 (10%), Method: PREINCUBATION
[13] = Test System: AMES SALMONELLA TYPHIMURIUM, Strain/Indicator: TA98, Metabolic Activation: NONE, Method: STANDARD PLATE
[14] = Test System: AMES SALMONELLA TYPHIMURIUM, Strain/Indicator: TA98, Metabolic Activation: RAT, LIVER, S-9, AROCLOR 1254, Method: STANDARD PLATE
[15] = Test System: AMES SALMONELLA TYPHIMURIUM, Strain/Indicator: TA100, Metabolic Activation: NONE, Method: STANDARD PLATE
[16] = Test System: AMES SALMONELLA TYPHIMURIUM, Strain/Indicator: TA100, Metabolic Activation: RAT, LIVER, S-9, AROCLOR 1254, Method: STANDARD PLATE

Which mutagenic call [1] does the source give for `COC(C)(C)CC(C)=O` here?
The mutagenic call was “inactive; negative”.

And the mutagenic call [2]?
The mutagenic call was “inactive; negative”.

What about the mutagenic call [3] of the same compound?
Its mutagenic call is “inactive; negative”.

What about the mutagenic call [4] of the same compound?
The mutagenic call was “inactive; negative”.

What about the mutagenic call [5] of the same compound?
The mutagenic call was “inactive; negative”.

And the mutagenic call [6]?
Its mutagenic call is “inactive; negative”.

And the mutagenic call [7]?
Its mutagenic call is “inactive; negative”.

And the mutagenic call [8]?
Its mutagenic call is “inactive; negative”.

What about the mutagenic call [9] of the same compound?
Its mutagenic call is “inactive; negative”.

And the mutagenic call [10]?
The mutagenic call was “inactive; negative”.

What about the mutagenic call [11] of the same compound?
Its mutagenic call is “inactive; negative”.

And the mutagenic call [12]?
Its mutagenic call is “inactive; negative”.

For `Cc1ccc(N=Nc2ccc(C)c(N)c2)cc1N`, which mutagenic call [2] is on record?
Its mutagenic call is “inactive; negative”.

And the mutagenic call (Test System: AMES SALMONELLA TYPHIMURIUM, Strain/Indicator: TA98, Metabolic Activation: NONE, Method: SUSPENSION/PLATE)?
The mutagenic call was “inactive; negative”.

And the mutagenic call (Test System: AMES SALMONELLA TYPHIMURIUM, Strain/Indicator: TA98, Metabolic Activation: RAT, LIVER, S-9, PCB, Method: PREINCUBATION)?
Its mutagenic call is “active; positive”.

And the mutagenic call (Test System: AMES SALMONELLA TYPHIMURIUM, Strain/Indicator: TA98, Metabolic Activation: RAT, LIVER, S-9, PHENOBARBITAL AND 5,6-BENZOFLAVONE, Method: SUSPENSION/PLATE)?
Its mutagenic call is “active; positive”.

And the mutagenic call (Test System: AMES SALMONELLA TYPHIMURIUM, Strain/Indicator: TA100, Metabolic Activation: NONE, Method: SUSPENSION/PLATE)?
The mutagenic call was “inactive; negative”.

What about the mutagenic call (Test System: AMES SALMONELLA TYPHIMURIUM, Strain/Indicator: TA100, Metabolic Activation: RAT, LIVER, S-9, PHENOBARBITAL AND 5,6-BENZOFLAVONE, Method: SUSPENSION/PLATE) of the same compound?
The mutagenic call was “active; positive”.

Which results are given for `CN(C)c1ccc(C(=C2C=CC(=[N+](C)C)C=C2)c2c(O)c(S(=O)(=O)[O-])cc3cc(S(=O)(=O)O)ccc23)cc1`?
mutagenic call [13]: inactive; negative; mutagenic call [14]: inactive; negative; mutagenic call [15]: inactive; negative; mutagenic call [16]: inactive; negative; mutagenic call (Test System: AMES SALMONELLA TYPHIMURIUM, Strain/Indicator: TA1535, Metabolic Activation: NONE, Method: STANDARD PLATE): inactive; negative; mutagenic call (Test System: AMES SALMONELLA TYPHIMURIUM, Strain/Indicator: TA1535, Metabolic Activation: RAT, LIVER, S-9, AROCLOR 1254, Method: STANDARD PLATE): inactive; negative; mutagenic call (Test System: AMES SALMONELLA TYPHIMURIUM, Strain/Indicator: TA1538, Metabolic Activation: NONE, Method: STANDARD PLATE): inactive; negative; mutagenic call (Test System: AMES SALMONELLA TYPHIMURIUM, Strain/Indicator: TA1538, Metabolic Activation: RAT, LIVER, S-9, AROCLOR 1254, Method: STANDARD PLATE): inactive; negative

With `CCN(C(=S)[S-])c1ccccc1.CCN(C(=S)[S-])c1ccccc1.[Zn+2]` as the compound, how does the mutagenic call [13] read?
The mutagenic call was “inactive; negative”.

What about the mutagenic call (Test System: AMES SALMONELLA TYPHIMURIUM, Strain/Indicator: TA98, Metabolic Activation: S-9, Method: STANDARD PLATE) of the same compound?
Its mutagenic call is “inactive; negative”.

What about the mutagenic call [15] of the same compound?
The mutagenic call was “inactive; negative”.

And the mutagenic call (Test System: AMES SALMONELLA TYPHIMURIUM, Strain/Indicator: TA100, Metabolic Activation: S-9, Method: STANDARD PLATE)?
The mutagenic call was “inactive; negative”.

How did the mutagenic call (Test System: AMES SALMONELLA TYPHIMURIUM, Strain/Indicator: TA1537, Metabolic Activation: NONE, Method: STANDARD PLATE) turn out when `Cc1cc(O)c2c(c1O)C(=O)c1cc(O)cc(O)c1C2=O` was run?
The mutagenic call was “inactive; negative”.

What about the mutagenic call (Test System: AMES SALMONELLA TYPHIMURIUM, Strain/Indicator: TA1537, Metabolic Activation: RAT, LIVER, S-9, PCB, Method: STANDARD PLATE) of the same compound?
The mutagenic call was “inactive; negative”.

With `CCC(Cl)C(Cl)C(Cl)CC(Cl)C(Cl)C(C)Cl` (centres undefined) as the compound, how does the mutagenic call (Test System: AMES SALMONELLA TYPHIMURIUM, Strain/Indicator: TA97, Metabolic Activation: HAMSTER, LIVER, S-9, AROCLOR 1254, Method: PREINCUBATION) read?
The mutagenic call was “inactive; negative”.

What about the mutagenic call (Test System: AMES SALMONELLA TYPHIMURIUM, Strain/Indicator: TA97, Metabolic Activation: NONE, Method: PREINCUBATION) of the same compound?
Its mutagenic call is “inactive; negative”.

And the mutagenic call (Test System: AMES SALMONELLA TYPHIMURIUM, Strain/Indicator: TA97, Metabolic Activation: RAT, LIVER, S-9, AROCLOR 1254, Method: PREINCUBATION)?
Its mutagenic call is “inactive; negative”.

What about the mutagenic call [1] of the same compound?
Its mutagenic call is “inactive; negative”.

And the mutagenic call (Test System: AMES SALMONELLA TYPHIMURIUM, Strain/Indicator: TA98, Metabolic Activation: HAMSTER, LIVER, S-9, AROCLOR 1254, Method: PREINCUBATION)?
The mutagenic call was “inactive; negative”.

What about the mutagenic call [2] of the same compound?
Its mutagenic call is “inactive; negative”.

And the mutagenic call [3]?
Its mutagenic call is “inactive; negative”.

What about the mutagenic call (Test System: AMES SALMONELLA TYPHIMURIUM, Strain/Indicator: TA98, Metabolic Activation: RAT, LIVER, S-9, AROCLOR 1254, Method: PREINCUBATION) of the same compound?
The mutagenic call was “inactive; negative”.

And the mutagenic call [4]?
The mutagenic call was “inactive; negative”.

And the mutagenic call (Test System: AMES SALMONELLA TYPHIMURIUM, Strain/Indicator: TA100, Metabolic Activation: HAMSTER, LIVER, S-9, AROCLOR 1254, Method: PREINCUBATION)?
The mutagenic call was “inactive; negative”.

And the mutagenic call [5]?
Its mutagenic call is “inactive; negative”.

And the mutagenic call [6]?
Its mutagenic call is “inactive; negative”.

And the mutagenic call (Test System: AMES SALMONELLA TYPHIMURIUM, Strain/Indicator: TA100, Metabolic Activation: RAT, LIVER, S-9, AROCLOR 1254, Method: PREINCUBATION)?
The mutagenic call was “inactive; negative”.

And the mutagenic call [7]?
Its mutagenic call is “inactive; negative”.

And the mutagenic call (Test System: AMES SALMONELLA TYPHIMURIUM, Strain/Indicator: TA1535, Metabolic Activation: HAMSTER, LIVER, S-9, AROCLOR 1254, Method: PREINCUBATION)?
The mutagenic call was “inactive; negative”.

What about the mutagenic call [8] of the same compound?
The mutagenic call was “inactive; negative”.

And the mutagenic call [9]?
The mutagenic call was “inactive; negative”.

What about the mutagenic call (Test System: AMES SALMONELLA TYPHIMURIUM, Strain/Indicator: TA1535, Metabolic Activation: RAT, LIVER, S-9, AROCLOR 1254, Method: PREINCUBATION) of the same compound?
Its mutagenic call is “inactive; negative”.

What about the mutagenic call [10] of the same compound?
Its mutagenic call is “inactive; negative”.

What about the mutagenic call [11] of the same compound?
Its mutagenic call is “inactive; negative”.

What about the mutagenic call [12] of the same compound?
The mutagenic call was “inactive; negative”.

What about the mutagenic call (Test System: MOUSE LYMPHOMA, Strain/Indicator: L5178Y (TK+/TK-), Metabolic Activation: NONE, Method: SUSPENSION/PLATE) of the same compound?
Its mutagenic call is “active; positive”.

Which results are given for `CC(=O)Nc1ccccc1C`?
mutagenic call [13]: inactive; negative; mutagenic call [14]: inactive; negative; mutagenic call [15]: inactive; negative; mutagenic call [16]: inactive; negative

`O=C(c1ccc(O)cc1)c1ccc(O)cc1` was tested. Which mutagenic call (End Point: In vitro micronucleus, Test System: HepG2 cells, Metabolic Activation: None) did it give?
The mutagenic call was “inactive; negative”.
